Measured values reported in US20090131354A1, “miR-126 REGULATED GENES AND PATHWAYS AS TARGETS FOR THERAPEUTIC INTERVENTION” (priority 2007, published 2009).

Experiments:
Format in all cases: cell-based, human
[1] = test system: H1299 lung cancer cells; test: Alamar Blue proliferation assay, H1299; settings: relative to NC miRNA (100%)
Text: (§1) The inventors assessed the therapeutic effect of hsa-miR-126 for lung cancer by using 11 individual lung cancer cell lines. To measure cellular proliferation of lung cancer cells, the following non-small cell lung cancer (NSCLC) cells were used: cells derived from lung adenocarcinoma (A549, H1299, H522, H838, Calu-3, HCC827, HCC2935), cells derived from lung squamous cell carcinoma (H520, H226), cells derived from lung bronchioalveolar carcinoma (H1650), and cells derived from lung large cell carcinoma (H460). Synthetic hsa-miR-126 (Pre-miR™-hsa-miR-126, Ambion cat. no. AM17100) or negative control (NC) miRNA (Pre-miR™ microRNA Precursor Molecule-Negative Control #2; Ambion cat. no. AM17111) was delivered via lipid-based transfection into A549, H1299, H522, H838, Calu-3, HCC827, HCC2935, H520, H1650, and H460 cells, and via electroporation into H226 cells.
Lipid-based reverse transfections were carried out in triplicate according to a published protocol (Ovcharenko et al., 2005) and the following parameters: Cells (5,000-12,000 per 96 well), 0.1-0.2 μl Lipofectamine™ 2000 (cat. no. 11668-019, Invitrogen Corp., Carlsbad, Calif., USA) in 20 μl OptiMEM (Invitrogen), 30 nM final concentration of miRNA in 100 μl. Electroporation of H226 cells was carried out using the BioRad Gene Pulser Xcell™ instrument (BioRad Laboratories Inc., Hercules, Calif., USA) with the following settings: 5×10^6 cells with 5 μg miRNA in 200 μl OptiMEM (1.6 μM miRNA), square wave pulse at 250 V for 5 ms. Electroporated H226 cells were seeded at 7,000 cells per 96-well in a total volume of 100 μl. All cells except for Calu-3 cells were harvested 72 hours post transfection or electroporation for assessment of cellular proliferation. Calu-3 cells were harvested 10 days post transfection. Proliferation assays were performed using Alamar Blue (Invitrogen) following the manufacturer's instructions. As a control for inhibition of cellular proliferation, siRNA against the motor protein kinesin 11, also known as Eg5, was used. […]

[2] = test system: H460 lung cancer cells; test: Alamar Blue proliferation assay, H460; settings: for % proliferation: relative to NC miRNA (100%)
Text: as §1
Lipid-based reverse transfections were carried out in triplicate according to a published protocol (Ovcharenko et al., 2005) and the following parameters: Cells (5,000-12,000 per 96 well), 0.1-0.2 μl Lipofectamine™ 2000 (cat. no. 11668-019, Invitrogen Corp., Carlsbad, Calif., USA) in 20 μl OptiMEM (Invitrogen), 30 nM final concentration of miRNA in 100 μl. Electroporation of H226 cells was carried out using the BioRad Gene Pulser Xcell™ instrument (BioRad Laboratories Inc., Hercules, Calif., USA) with the following settings: 5×10^6 cells with 5 μg miRNA in 200 μl OptiMEM (1.6 μM miRNA), square wave pulse at 250 V for 5 ms. Electroporated H226 cells were seeded at 7,000 cells per 96-well in a total volume of 100 μl. All cells except for Calu-3 cells were harvested 72 hours post transfection or electroporation for assessment of cellular proliferation. Calu-3 cells were harvested 10 days post transfection. Proliferation assays were performed using Alamar Blue (Invitrogen) following the manufacturer's instructions. As a control for inhibition of cellular proliferation, siRNA against the motor protein kinesin 11, also known as Eg5, was used. Eg5 is essential for cellular survival of most eukaryotic cells and a lack thereof leads to reduced cell proliferation and cell death (Weil et al., 2002). siEg5 was used in lipid-based transfection following the same experimental parameters that apply to miRNA. The inventors also used a DNA topoisomerase II inhibitor, etoposide, at a final concentration of 10 μM and 50 μM as an internal standard for the potency of miRNAs. Etoposide is an FDA-approved DNA topoisomerase II inhibitor in the treatment of lung cancer. […] Percent (%) proliferation values from the Alamar Blue assay were normalized to values from cells treated with negative control miRNA. […]

[3] = test system: Calu-3 lung cancer cells; test: Alamar Blue proliferation assay, Calu-3
Text: as §1
Electroporation of H226 cells was carried out using the BioRad Gene Pulser Xcell™ instrument (BioRad Laboratories Inc., Hercules, Calif., USA) with the following settings: 5×10^6 cells with 5 μg miRNA in 200 μl OptiMEM (1.6 μM miRNA), square wave pulse at 250 V for 5 ms. Electroporated H226 cells were seeded at 7,000 cells per 96-well in a total volume of 100 μl. All cells except for Calu-3 cells were harvested 72 hours post transfection or electroporation for assessment of cellular proliferation. Calu-3 cells were harvested 10 days post transfection. Proliferation assays were performed using Alamar Blue (Invitrogen) following the manufacturer's instructions. As a control for inhibition of cellular proliferation, siRNA against the motor protein kinesin 11, also known as Eg5, was used. Eg5 is essential for cellular survival of most eukaryotic cells and a lack thereof leads to reduced cell proliferation and cell death (Weil et al., 2002). siEg5 was used in lipid-based transfection following the same experimental parameters that apply to miRNA. The inventors also used a DNA topoisomerase II inhibitor, etoposide, at a final concentration of 10 μM and 50 μM as an internal standard for the potency of miRNAs. […]

`COc1cc([C@@H]2c3cc4c(cc3[C@@H](O[C@@H]3O[C@@H]5CO[C@@H](C)O[C@H]5[C@H](O)[C@H]3O)[C@H]3COC(=O)[C@H]23)OCO4)cc(OC)c1O` [etoposide] was tested, and the “% proliferation” value ([1]; H1299, 10 μM) was 79.65%, the “% proliferation” value ([1]; H1299, 50 μM) was 54.38% and the “% proliferation” value ([2]; H460, 10 μM) was 32.13%. For the same compound, the “% proliferation” value ([2]; H460, 50 μM) was 27.82%, the “% proliferation” value ([3]; Calu-3, 10 μM, relative to NC miRNA (100%)) was 20.81% and the “% proliferation” value ([3]; Calu-3, relative to NC miRNA (100%)) was 13.53%.

“hsa-miR-126 (UCGUACCGUGAGUAAUAAUGC; synthetic pre-miR form, further chemistry not given here) [Synthetic hsa-miR-126 (Pre-miR™-hsa-miR-126, Ambion cat. no. AM17100)]” was tested, and the “% proliferation” value ([1]; H1299, 30 nM, 72 h) was 89.37%, the “reduction of proliferation (maximal inhibitory activity)” value ([2]; H460, 30 nM) was 71% and the “% proliferation” value ([2]; H460, 30 nM, 72 h) was 29.09%. For the same compound, the “% proliferation” value ([3]; Calu-3, 30 nM, 10 days, relative to NC miRNA (100%)) was 65.05%.
